Active and inactive are the calls of the source. The calls are words filed in the database; no cut-off is given here.
Tests used:
[1] = system: Rhesus monkey; experiment: Narcotic antagonist activity in morphine-dependent monkey by single dose suppression test; type: functional, organism-based; conditions: Macaca mulatta
[2] = system: Rhesus monkey; experiment: Narcotic antagonist activity in morphine-dependent monkey by precipitated withdrawl test; type: functional, organism-based; conditions: Macaca mulatta
[3] = system: Rattus norvegicus; experiment: Narcotic analgesic activity in rat at 30 mg/kg, sc by tail-flick test relative to control; type: functional
[4] = system: Mus musculus; experiment: Narcotic analgesic activity in mouse assessed as suppression of phenylquinone-induced writhing at 30 mg/kg, sc relative to control; type: functional; conditions: route subcutaneous
[5] = system: Mus musculus; experiment: Narcotic analgesic activity in sc dosed mouse by hot-plate test; type: functional
[6] = system: Rattus norvegicus; experiment: Narcotic antagonist activity in rat at 30 mg/kg, sc by tail-flick test relative to control; type: functional
[7] = system: Rhesus monkey; experiment: Toxicity in morphine-dependent monkey assessed as morphine substitution measured during single dose suppression test; type: organism-based, Macaca mulatta; conditions: in vivo
[8] = system: Rhesus monkey; experiment: Toxicity in morphine-dependent monkey assessed as morphine substitution measured during precipitated withdrawl test; type: organism-based, Macaca mulatta; conditions: in vivo
[9] = system: Rattus norvegicus; experiment: Narcotic antagonist activity in rat at 1 to 10 mg/kg, sc by tail-flick test; type: functional, organism-based
[10] = system: Rattus norvegicus; experiment: Narcotic analgesic activity in sc dosed rat by tail-flick test; type: functional
[11] = system: Mus musculus; experiment: Narcotic analgesic activity in sc dosed mouse assessed as suppression of phenylquinone-induced writhing; type: functional
[12] = system: Rattus norvegicus; experiment: Narcotic antagonist activity in sc dosed rat by tail-flick test; type: functional
[13] = system: Mus musculus; experiment: Narcotic analgesic activity in mouse assessed as suppression of phenylquinone-induced writhing at 10 mg/kg, sc relative to control; type: functional; conditions: route subcutaneous
[14] = system: Mus musculus; experiment: Toxicity in mouse assessed as hyperactivity at 3 to 10 mg/kg, sc; type: organism-based; set-up: dose 3-10 mg/kg, route subcutaneous; conditions: in vivo
[15] = system: Mus musculus; experiment: Toxicity in mouse assessed as ataxia at 3 to 10 mg/kg, sc; type: organism-based; set-up: dose 3-10 mg/kg, route subcutaneous; conditions: in vivo
[16] = system: Mus musculus; experiment: Narcotic analgesic activity in mouse at 10 to 40 mg/kg, sc by Nilsen test; type: functional, organism-based
[17] = system: Mus musculus; experiment: Toxicity in mouse at 50 mg/kg, sc; type: organism-based; set-up: dose 50 mg/kg, route subcutaneous; conditions: in vivo
[18] = system: Mus musculus; experiment: Narcotic analgesic activity in mouse at 20 mg/kg, sc by Nilsen test; type: functional, organism-based; set-up: dose 20 mg/kg
[19] = system: Mus musculus; experiment: Narcotic analgesic activity in mouse at 50 mg/kg by hot-plate test; type: functional, organism-based; set-up: dose 50 mg/kg
[20] = system: Rhesus monkey; experiment: Toxicity in morphine-dependent monkey assessed as morphine substitution at 2.5 to 20 mg/kg measured during single dose suppression test; type: organism-based, Macaca mulatta; set-up: dose 2.5-20 mg/kg; conditions: in vivo
[21] = system: Rhesus monkey; experiment: Toxicity in morphine-dependent monkey assessed as morphine substitution at 2.5 to 20 mg/kg measured during precipitated withdrawl test; type: organism-based, Macaca mulatta; set-up: dose 2.5-20 mg/kg; conditions: in vivo
[22] = system: Mus musculus; experiment: Narcotic analgesic activity in mouse at 20 to 50 mg/kg, sc by hot-plate test; type: functional, organism-based
[23] = system: Mus musculus; experiment: Narcotic analgesic activity in mouse at 50 mg/kg, sc by Nilsen test; type: functional, organism-based; set-up: dose 50 mg/kg
[24] = system: Rhesus monkey; experiment: Toxicity in morphine-dependent monkey assessed as depression of central nervous system; type: organism-based, Macaca mulatta; conditions: in vivo
[25] = system: Rhesus monkey; experiment: Toxicity in morphine-dependent monkey assessed as motor incoordination; type: organism-based, Macaca mulatta; conditions: in vivo
[26] = system: Rhesus monkey; experiment: Toxicity in morphine-dependent monkey assessed as convulsion; type: organism-based, Macaca mulatta; conditions: in vivo
[27] = system: Rhesus monkey; experiment: Toxicity in morphine-dependent monkey assessed as precipitation of abstinence signs; type: organism-based, Macaca mulatta; conditions: in vivo
[28] = system: Mus musculus; experiment: Narcotic analgesic activity in mouse at 100 mg/kg, sc by hot-plate test; type: functional, organism-based; set-up: dose 100 mg/kg
[29] = system: Mus musculus; experiment: Narcotic analgesic activity in sc dosed mouse by Nilsen test; type: functional
[30] = system: Rattus norvegicus; experiment: Narcotic antagonist activity in rat at 10 mg/kg, sc by tail-flick test; type: functional; set-up: scale not given: the % may be the effect or the level left
[31] = system: Mus musculus; experiment: Narcotic analgesic activity in mouse at 5 to 10 mg/kg, sc by Nilsen test; type: functional, organism-based
[32] = system: Mus musculus; experiment: Toxicity in mouse at 5 to 10 mg/kg, sc; type: organism-based; set-up: dose 5-10 mg/kg, route subcutaneous; conditions: in vivo
[33] = system: Rhesus monkey; experiment: Toxicity in morphine-dependent monkey assessed as depression of central nervous system in presence of naloxone; type: organism-based, Macaca mulatta; conditions: in vivo
[34] = system: Rhesus monkey; experiment: Toxicity in morphine-dependent monkey assessed as depression of central nervous system in presence of nalorphine; type: organism-based, Macaca mulatta; conditions: in vivo

For `C=CCN1CC[C@]23c4c5ccc(O)c4O[C@H]2C(=O)CC[C@@]3(O)[C@H]1C5`, the Activity [1] was “Active” and the Activity [2] was “Active”.

`CC[C@H]1[C@H]2Cc3ccc(O)cc3[C@@]1(C)CCN2` (racemic) was tested, and the inhibition in vivo at 30 mg/kg ([3]; route subcutaneous) was 37%, the inhibition in vivo at 30 mg/kg [4] was 45% and the ED50 [5] was “inactive”. The Activity [6] was “inactive”.

With `CC[C@H]1[C@H]2Cc3ccc(O)cc3[C@@]1(C)CCN2C` (racemic) the Activity [7] was “Toxic”, the Activity [8] was “Toxic” and the ED50 [5] was 1.3 mg/kg. The Activity [9] was “inactive”, the ED50 [10] was 6.4 mg/kg and the ED50 [11] was 0.2 mg/kg.

`CC[C@H]1[C@H]2Cc3ccc(O)cc3[C@@]1(C)CCN2CC` (racemic) was tested, and the inhibition in vivo at 30 mg/kg [4] was 27%, the ED50 [5] was 21.3 mg/kg and the ED50 [10] was “inactive”. It also gave an AD50 [12] of 5.5 mg/kg.

In the case of `CCCN1CC[C@]2(C)c3cc(O)ccc3C[C@@H]1[C@@H]2CC` (racemic), the ED50 [5] is reported as “inactive”, the ED50 [10] is reported as “inactive” and the AD50 [12] is reported as 0.7 mg/kg. For the same compound, the Activity [13] was 55%, the Activity [14] was “Toxic” and the Activity [15] was “Toxic”. The Activity [16] was “inactive”.

`CCCCN1CC[C@]2(C)c3cc(O)ccc3C[C@@H]1[C@@H]2CC` (racemic) was tested, and the inhibition [3] was “inactive”, the ED50 [5] was “inactive” and the ED50 [11] was 13 mg/kg. The AD50 [12] was 2.38 mg/kg, the Activity [17] was “Toxic” and the Activity [18] was “inactive”. The Activity [19] was “inactive”.

`CCCCCN1CC[C@]2(C)c3cc(O)ccc3C[C@@H]1[C@@H]2CC` (racemic) showed an ED50 [5] of 4.2 mg/kg, an Activity ([6]; route subcutaneous) of 39% and an ED50 [10] of 28.1 mg/kg. The ED50 [11] was 1.8 mg/kg and the AD50 [12] was “inactive”.

`CCCCCCN1CC[C@]2(C)c3cc(O)ccc3C[C@@H]1[C@@H]2CC` (racemic) was tested, and the Activity [20] was “Non-toxic”, the Activity [21] was “Non-toxic” and the ED50 [5] was 6.2 mg/kg. For the same compound, the Activity [6] was “inactive”, the ED50 [10] was 18.7 mg/kg and the ED50 [11] was 5.7 mg/kg.

Work on `CCCCCCCN1CC[C@]2(C)c3cc(O)ccc3C[C@@H]1[C@@H]2CC` (racemic) yielded an ED50 [5] of 9.9 mg/kg, an ED50 [10] of 14 mg/kg and an ED50 [11] of 7.3 mg/kg. The AD50 [12] was “inactive”.

With `CCCCCCCCN1CC[C@]2(C)c3cc(O)ccc3C[C@@H]1[C@@H]2CC` (racemic) the ED50 [5] was “inactive”, the ED50 [10] was “inactive” and the ED50 [11] was 15.1 mg/kg. The AD50 [12] was “inactive”.

In the case of `C=CCN1CC[C@]2(C)c3cc(O)ccc3C[C@@H]1[C@@H]2CC` (racemic), the Activity [1] is reported as “Active”, the Activity [2] is reported as “Active” and the inhibition [3] is reported as “inactive”. For the same compound, the ED50 [11] was 15.7 mg/kg, the AD50 [12] was 0.6 mg/kg and the Activity [22] was “inactive”.

For `C=CCCCN1CC[C@]2(C)c3cc(O)ccc3C[C@@H]1[C@@H]2CC` (racemic), the Activity [23] was “inactive”, the Activity [24] was “Toxic” and the Activity [25] was “Toxic”. For the same compound, the Activity [26] was “Toxic”, the Activity [27] was “Toxic” and the inhibition [3] was “inactive”. For the same compound, the ED50 [11] was 2.56 mg/kg, the AD50 [12] was 1.18 mg/kg and the Activity [28] was “inactive”.

For `CC[C@H]1[C@H]2Cc3ccc(O)cc3[C@@]1(C)CCN2CC=C(C)C` (racemic), the ED50 [29] was 26.8 mg/kg, the ED50 [5] was 8.9 mg/kg and the ED50 [10] was “inactive”. For the same compound, the AD50 [12] was 3.1 mg/kg and the Activity [13] was 36%.

With `CC[C@H]1[C@H]2Cc3ccc(O)cc3[C@@]1(C)CCN2CC1CC1` (racemic) the Activity ([30]; route subcutaneous) was 12%, the Activity [31] was “inactive” and the Activity [32] was “Toxic”. For the same compound, the Activity [1] was “Active”, the Activity [2] was “Active” and the ED50 [5] was “inactive”. The ED50 [11] was 2.1 mg/kg and the AD50 [12] was 0.19 mg/kg.

In the case of `CC[C@H]1[C@H]2Cc3ccc(O)cc3[C@@]1(C)CCN2CC1CCC1` (racemic), the ED50 [29] is reported as 2.9 mg/kg, the Activity [30] is reported as “inactive” and the Activity [27] is reported as “Toxic”. For the same compound, the Activity [33] was “Non-toxic”, the Activity [34] was “Toxic” and the ED50 [5] was 1.8 mg/kg. The ED50 [11] was 0.31 mg/kg and the AD50 [12] was 0.477 mg/kg.

For `CN1CC[C@]23c4c5ccc(O)c4O[C@H]2[C@@H](O)C=C[C@H]3[C@H]1C5` [MORPHINE], the ED50 [29] was 0.8 mg/kg, the ED50 [5] was 1.2 mg/kg and the ED50 [10] was 5.34 mg/kg. The AD50 [12] was “inactive”.

In the case of `C=CCN1CC[C@]23c4c5ccc(O)c4O[C@H]2[C@@H](O)C=C[C@H]3[C@H]1C5` [NALORPHINE], the ED50 [29] is reported as 4.8 mg/kg, the Activity [1] is reported as “Active” and the Activity [2] is reported as “Active”. For the same compound, the ED50 [5] was 36.3 mg/kg and the Activity [9] was “inactive”.
